The subject of the test is U87MG-R. The experiment in a line: Orthotopic TMZ-resistant GBM mouse model, intracranial U87MG-R. Conditions: TMZ (15 mg/kg oral) plus vehicle; untreated control 21 days.

Description: Animal survival was evaluated from the first day of treatment until death.
TMZ-resistant GBM inoculated orthotopic mice were randomly grouped and treated with TMZ or TMZ plus JM17.
Briefly, a skull burr hole was first created in the right frontal brain area. An ultra-fine needle was then inserted to a depth of 3 mm using stereostatic guiding, and 5×10^5 TMZ-resistant cells were injected.
Twenty-eight-week-old nude mice received U87MG-R transplantation. Five days later, these animals were randomized into four treatment groups (7 animals per group), which received TMZ (15 mg/kg) by oral gavage and JM17 by the intravenous injection three times per week (Day 1, 3, 5 of the week) as follows: Control (untreated), TMZ plus vehicle, TMZ plus JM17 (5 mg/kg) and TMZ plus JM17 (20 mg/kg) (FIG. 5).

As for `Cn1nnc2c(C(N)=O)ncn2c1=O` [TMZ, temozolomide], the median survival stood at 20 days.

(Values after US20200214998A1, “Method for Treating a Brain Cancer” (Allianz Pharmascience Ltd., priority 2019, published 2020).)
